Measured values as given in patent US9655981B2, “Mixed micelles” (Omeros Corporation, priority 2011, dated 2017).

Columns and labels:
[1] = test system: MDA-MB-435-MDR cells; assay: Cytotoxicity, MTS assay; settings: 4 hours treatment, viability after 24 hours, 16 μg/mL DOX
Protocol: The cell lines which were used were the MDA-MB-435 (Parent) and MDA-MB-435-MDR (MDR) cell lines.
Cytotoxicity was measured by treating MDA-MB-435 (Parent) and MDA-MB-435-MDR cells for 4 hours with free doxorubicin and encapsulated doxorubicin using various formulations of mixed micelles. After 4 hours the doxorubicin was rinsed from the cells. After 24 hours the cell viability was measured using an MTS assay. MDA-MB-435 cells were treated with 4 μg/mL DOX, and […] cells were treated with 16 μg/mL DOX.

[2] = Stability of ICG in micelles in vitro (decay of fluorescence emission in water); assay type: physicochemical; settings: within forty-eight hours, deionized water, dark
Text: ICG has advantageous fluorescence properties for near-infrared imaging (NIR) in vivo but limitations include the molecule's photo, aqueous, and thermal instability as well as rapid binding to blood proteins and subsequent clearance by the liver. See, e.g., Cherrick, J. Clin. Invest. 39:592-600 (1959) and Kirchherr, et al., Mol. Pharmaceut. 6:480-491 (2009). Aqueous degradation of ICG occurs as a result of double bond saturation in the molecule's conjugated chain, and sequestering the molecule from the solvent radicals that activate this process reduces the rate of its degradation. See, e.g., Kirchherr et al., and Altinoglu and Adair, Wiley Interdisciplinary Reviews—Nanomedicine and Nanobiotechnology, 2:[…] (2010). To test the ability of the mixed micelle systems to stabilize ICG, the fluorescence of encapsulated dye was monitored over time at both room temperature and 37° C.
Stability of ICG in mixed micelles was evaluated by measuring decay of fluorescence emission in solution over a period of approximately ten days. […] At predetermined intervals, each mixture was sampled and the fluorescence intensity of the sample was evaluated with excitation at 775 nm and emission from 786 to 850 nm.

| SMILES | cytotoxicity (cell viability, in words) [1] | ICG fluorescence, % of original fluorescence value ([2]; 37° C.) | ICG fluorescence, % of original fluorescence value ([2]; room temperature) |
| --- | --- | --- | --- |
| COc1cccc2c1C(=O)c1c(O)c3c(c(O)c1C2=O)C[C@@](O)(C(=O)CO)C[C@@H]3O[C@H]1C[C@H](N)[C@H](O)[C@H](C)O1 [Unencapsulated DOX, Doxorubicin] | limited effect | – | – |
| CC1(C)C(/C=C/C=C/C=C/C=C2\N(CCCCS(=O)(=O)O)c3ccc4ccccc4c3C2(C)C)=[N+](CCCCS(=O)(=O)[O-])c2ccc3ccccc3c21 [free ICG, indocyanine green] | – | less than 10% | less than 10% |
